Tested on: mildew fungus Blumeria graminis f. sp. hordei (race A6)
Test: Protective fungicide glasshouse trial on barley (mildew)
Format: in vivo
Conditions: Table 6; Sulfur 250 g/ha, no adjuvant; 10 days after application
From the text: The plants (barley) were cultivated under glass in exactly the same way as in the curative trial. For the protective trials, however, the plants were sprayed at about three weeks old with spray solutions containing the active fungicidal ingredient sulfur (Microthiol WG 80% sulfur from Stähler), either alone or in combination with adjuvants/additives. Furthermore, in order to test for synergy, the adjuvant was applied in the spray solution alone, in other words without sulfur. The sulfur dose was 1000 ppm/l, while the adjuvants were used in different doses (for doses see results tables). The amount of spray solution was 250 l/ha, and so the adjuvant concentration in the spray solution was not more than 0.1%; the sulfur dose was 250 g/ha. […]
The activity of the adjuvant alone, of the pesticide alone (i.e., of the fungicides or herbicides), and of the pesticide/adjuvant combination was calculated, in a manner known to the skilled person, in comparison to an untreated control sample, which was nevertheless inoculated with the mildew fungus, and expressed in % control of the disease.

`S1SSSSSSS1` [Sulfur, sulfur] was tested, and the “Efficacy (%)” value was 46%.
